The results in this text go back to patent publication EP1401829B1, “NOVEL HETEROCYCLIC ANTIBACTERIAL COMPOUNDS” (Microbiotix, Inc., priority 2001, dated 2002).

One assay deals with E. fecalis. Nature of the assay: Minimal Inhibitory Concentration (MIC) determination, 96 well plates. As to conditions: Enterococcus; HBI medium, 16 to 18 hours at 37°C; read-out: MIC (µg/ml) E. fecalis. Format: cell-based, Enterococcus fecalis. In a few lines: (§1)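 Broth growth in Heart-Brain Infusion medium, seeded at about 1x10^5 CFU/ml, 16 to 18 hours at 37°C. Growth read at OD 600 nm as percent of untreated control; five concentrations per drug, five data points each, MIC reported in µg/ml.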

Another assay concerns B. subtilis. The description is as above. Format: cell-based, Bacillus subtilis. As to conditions: Bacillus subtilis; HBI medium, 16 to 18 hours at 37°C; read-out: MIC (µg/ml) B. subtilis. In a few lines: as §1
The next assay deals with E. coli. Described as above. The conditions noted are these: Escherichia coli, read-out: MIC (µg/ml) E. coli. Format: cell-based, Escherichia coli. The gist of the method: (§2)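 Cultures seeded at approximately 1x10^5 CFU/ml in Heart-Brain Infusion medium were exposed to five compound concentrations, five data points each, for 16 to 18 hours at 37°C. Growth at OD 600 nm was expressed as percent of control, and MIC values are given in µg/ml.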

A further assay concerns S.aureus (Smith). The description is as above. The assay is classed as cell-based, Staphylococcus aureus. The conditions noted are these: Staphylococcus aureus; HBI medium, 16 to 18 hours at 37°C; read-out: MIC (µg/ml) S.aureus (Smith). The gist of the method: as §1
The test system of a further assay is S. aureus. Described as above. The conditions noted are these: Staphylococcus aureus; HBI medium, 16 to 18 hours at 37°C; read-out: MIC (µg/ml) S. aureus. The assay is classed as cell-based, Staphylococcus aureus. In a few lines:
as §2

For the next assay, the system named is E. fecium. The description is as above. Format: cell-based, Enterococcus fecium. As to conditions: Enterococcus; HBI medium, 16 to 18 hours at 37°C; read-out: MIC (µg/ml) E. fecium. In a few lines: as §1
In a further assay the target is T1, B. subtilis Pol IIIC (Bacillus subtilis, UniProt P13267).
T1 construct: made in house
Nature of the assay: Polymerase IIIC (Pol IIIC) assay, determination of Ki values. The assay is classed as biochemical. The conditions noted are these: assay in absence of dGTP or dATP, Ki is the concentration that reduces control polymerase IIIC activity by 50 percent; for Ki: Ki (µM) Pol IIIC. In a few lines: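 Isolated B. subtilis Pol IIIC (0.025–0.06 units) run 10 min at 30°C in 30 mM Tris pH 7.5, 10 mM Mg acetate, 4 mM DTT, 20% glycerol. Substrates were 0.4 mg/ml activated calf thymus DNA, 25 µM dNTPs and 10 µM [3H]dTTP, with dGTP or dATP omitted per compound structure.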

[1] abbreviates: HBI medium, 16 to 18 hours at 37°C.

In brackets after ≈: the same amount, converted by molar mass. Like-named read-outs stand apart in the source and are kept apart here.

T1 sequence (P13267 whole entry): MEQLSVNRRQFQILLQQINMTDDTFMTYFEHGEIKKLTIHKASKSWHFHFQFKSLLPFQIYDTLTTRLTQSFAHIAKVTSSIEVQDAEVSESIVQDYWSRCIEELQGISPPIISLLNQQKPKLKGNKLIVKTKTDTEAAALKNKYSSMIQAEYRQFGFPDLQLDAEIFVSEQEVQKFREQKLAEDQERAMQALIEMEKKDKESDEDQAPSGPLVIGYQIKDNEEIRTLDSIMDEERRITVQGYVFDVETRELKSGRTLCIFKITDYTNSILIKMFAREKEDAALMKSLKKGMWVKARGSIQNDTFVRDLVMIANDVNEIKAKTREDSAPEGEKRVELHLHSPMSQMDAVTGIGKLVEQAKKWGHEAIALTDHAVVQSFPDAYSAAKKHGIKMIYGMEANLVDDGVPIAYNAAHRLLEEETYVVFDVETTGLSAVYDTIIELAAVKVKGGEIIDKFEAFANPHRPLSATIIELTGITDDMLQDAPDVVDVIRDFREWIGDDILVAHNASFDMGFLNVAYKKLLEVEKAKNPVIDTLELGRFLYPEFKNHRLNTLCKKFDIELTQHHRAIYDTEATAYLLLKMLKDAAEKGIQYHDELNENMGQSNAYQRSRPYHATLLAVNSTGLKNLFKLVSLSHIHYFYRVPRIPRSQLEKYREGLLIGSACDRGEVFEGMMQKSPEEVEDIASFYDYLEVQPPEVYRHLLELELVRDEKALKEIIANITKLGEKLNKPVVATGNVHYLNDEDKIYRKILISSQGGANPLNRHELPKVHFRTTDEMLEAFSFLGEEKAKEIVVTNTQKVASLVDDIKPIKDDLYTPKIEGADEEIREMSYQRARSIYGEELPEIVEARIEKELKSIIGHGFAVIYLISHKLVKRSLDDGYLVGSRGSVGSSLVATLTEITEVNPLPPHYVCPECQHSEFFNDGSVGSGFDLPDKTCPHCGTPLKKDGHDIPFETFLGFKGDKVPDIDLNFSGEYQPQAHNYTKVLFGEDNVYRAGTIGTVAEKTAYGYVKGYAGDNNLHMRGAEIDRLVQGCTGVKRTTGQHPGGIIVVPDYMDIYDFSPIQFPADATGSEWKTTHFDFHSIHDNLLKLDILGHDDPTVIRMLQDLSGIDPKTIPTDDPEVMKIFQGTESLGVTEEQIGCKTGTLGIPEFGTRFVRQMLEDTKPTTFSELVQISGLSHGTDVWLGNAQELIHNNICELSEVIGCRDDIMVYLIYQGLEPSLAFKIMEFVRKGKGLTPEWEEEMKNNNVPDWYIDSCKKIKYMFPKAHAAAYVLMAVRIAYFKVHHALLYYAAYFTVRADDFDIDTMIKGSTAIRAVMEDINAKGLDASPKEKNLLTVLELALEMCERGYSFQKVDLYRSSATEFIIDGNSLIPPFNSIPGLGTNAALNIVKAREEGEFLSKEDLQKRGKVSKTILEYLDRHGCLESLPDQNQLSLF

In the case of `CCc1cc(Nc2cc(=O)n(CCCCN3CCN(c4cc5c(cc4F)c(=O)c(C(=O)O)cn5-c4ccc(F)cc4F)CC3C)c(=O)[nH]2)ccc1C` (stereo not shown) [Compound 89, 3-{4-[1-(1-{2,4-difluorophenyl}-3-carboxy-4-oxo-6-fluoro-7-quinolyl)-3-methyl-4-piperazinyl]butyl}-6-(3-ethyl-4-methylanilino)uracil], the MIC is 0.625 µg/mL (≈ 0.872 µM) in the assay on E. fecalis; 0.156 µg/mL (≈ 0.218 µM) in the assay on B. subtilis; over 80 µg/mL with E. coli (setting [1]); 0.156 µg/mL (≈ 0.218 µM) in the assay with S.aureus (Smith); 0.313 µg/mL (≈ 0.437 µM) with S. aureus; 0.625 µg/mL (≈ 0.872 µM) with E. fecium. The compound further gave a Ki on B. subtilis Pol IIIC of 0.018 µM.
Regarding `CCc1cc(Nc2cc(=O)n(CCCCN3CCN(c4cc5c(cc4F)c(=O)c(C(=O)O)cn5-c4ccc(F)cc4F)C[C@H]3C)c(=O)[nH]2)ccc1C` [Compound 90, (R)-3-{4-[1-(1-{2,4-difluorophenyl}-3-carboxy-4-oxo-6-fluoro-7-quinolyl)-3-methyl-4-piperazinyl]butyl}-6-(3-ethyl-4-methylanilino)uracil], the MIC in the assay with E. fecalis was 1.25 µg/mL (≈ 1.74 µM); with B. subtilis, 0.236 µg/mL (≈ 0.329 µM); in the assay with E. coli (setting [1]), over 40 µg/mL; with S.aureus (Smith), 0.313 µg/mL (≈ 0.437 µM); with S. aureus, 0.625 µg/mL (≈ 0.872 µM); in the assay with E. fecium it was 1.25 µg/mL (≈ 1.74 µM). On B. subtilis Pol IIIC, this compound registered a Ki of 0.017 µM.
In the case of `CCc1cc(Nc2cc(=O)n(CCCCN3CCN(c4c(F)cc5c(=O)c(C(=O)O)cn(C6CC6)c5c4F)CC3CO)c(=O)[nH]2)ccc1C` (stereo not shown) [Compound 91, 3-{4-[1-(1-cyclopropyl-3-carboxy-4-oxo-6,8-difluoro-7-quinolyl)-3-hydroxymethyl-4-piperazinyl]butyl}-6-(3-ethyl-4-methylanilino)uracil], the MIC in the assay on E. fecalis was 2.5 µg/mL (≈ 3.68 µM); in the assay on B. subtilis, 0.235 µg/mL (≈ 0.346 µM); with E. coli (setting [1]), over 80 µg/mL; with S.aureus (Smith), 0.625 µg/mL (≈ 0.921 µM); in the assay on S. aureus, 1.25 µg/mL (≈ 1.84 µM); with E. fecium, 2.5 µg/mL (≈ 3.68 µM). Besides, the Ki at B. subtilis Pol IIIC is 0.011 µM.
As to `CC1CN(c2c(F)cc3c(=O)c(C(=O)O)cn(C4CC4)c3c2F)CCN1CCCCn1c(=O)cc(Nc2ccc3c(c2)CCC3)[nH]c1=O` (stereo not shown) [Compound 92, 3-{4-[1-(1-cyclopropyl-3-carboxy-4-oxo-6,8-difluoro-7-quinolyl)-3-methyl-4-piperazinyl]butyl}-6-(5-indanylamino)uracil], the MIC stood at 0.625 µg/mL (≈ 0.946 µM) with E. fecalis; 0.117 µg/mL (≈ 0.177 µM) in the assay on B. subtilis; 2.5 µg/mL (≈ 3.78 µM) in the assay on E. coli (setting [1]); 0.235 µg/mL (≈ 0.356 µM) with S.aureus (Smith); 0.313 µg/mL (≈ 0.474 µM) in the assay on S. aureus; 0.937 µg/mL (≈ 1.42 µM) with E. fecium. Moreover, at B. subtilis Pol IIIC, the affinity, expressed as Ki, was 0.016 µM.
Consider `Cc1ccc(Nc2cc(=O)n(CCCCN3CCN(c4c(F)cc5c(=O)c(C(=O)O)cn(C6CC6)c5c4F)CC3C)c(=O)[nH]2)cc1C` (stereo not shown) [Compound 94, 3-{4-[1-(1-cyclopropyl-3-carboxy-4-oxo-6,8-difluoro-7-quinolyl)-3-methyl-4-piperazinyl]butyl}-6-(3,4-dimethylanilino)uracil], for which the MIC in the assay on E. fecalis was 1.25 µg/mL (≈ 1.93 µM); in the assay with B. subtilis it was 0.156 µg/mL (≈ 0.24 µM); in the assay on E. coli (setting [1]) it was 2.5 µg/mL (≈ 3.85 µM); in the assay on S.aureus (Smith), 0.313 µg/mL (≈ 0.482 µM); in the assay with S. aureus, 0.625 µg/mL (≈ 0.963 µM); in the assay with E. fecium it was 2.5 µg/mL (≈ 3.85 µM). The compound further registered a Ki at B. subtilis Pol IIIC of 0.026 µM.
`CCc1cc(Nc2cc(=O)n(CCCCN3CCN(c4cc5c(cc4F)c(=O)c(C(=O)O)cn5C4CC4)C[C@H]3C)c(=O)[nH]2)ccc1C` [Compound 95, (R)-3-{4-[1-(1-cyclopropyl-3-carboxy-4-oxo-6-fluoro-7-quinolyl)-3-methyl-4-piperazinyl]butyl}-6-(3-ethyl-4-methylanilino)uracil]: the MIC in the assay on E. fecalis stood at 0.625 µg/mL (≈ 0.969 µM); in the assay on B. subtilis it was 0.235 µg/mL (≈ 0.364 µM); in the assay on E. coli (setting [1]), 10 µg/mL (≈ 15.5 µM); in the assay on S.aureus (Smith), 0.625 µg/mL (≈ 0.969 µM); in the assay with S. aureus, 1.25 µg/mL (≈ 1.94 µM); in the assay with E. fecium, 0.625 µg/mL (≈ 0.969 µM). On B. subtilis Pol IIIC, this compound had a Ki of 0.012 µM.
As to `Cc1ccc(Nc2cc(=O)n(CCCCN3CCN(c4cc5c(cc4F)c(=O)c(C(=O)O)cn5C4CC4)C[C@H]3C)c(=O)[nH]2)cc1C` [Compound 96, (R)-3-{4-[1-(1-cyclopropyl-3-carboxy-4-oxo-6-fluoro-7-quinolyl)-3-methyl-4-piperazinyl]butyl}-6-(3,4-dimethylanilino)uracil], the MIC turned out to be 0.625 µg/mL (≈ 0.991 µM) in the assay with E. fecalis; 0.156 µg/mL (≈ 0.247 µM) in the assay on B. subtilis; 5 µg/mL (≈ 7.93 µM) with E. coli (setting [1]); 0.313 µg/mL (≈ 0.496 µM) in the assay on S.aureus (Smith); 0.625 µg/mL (≈ 0.991 µM) with S. aureus; 0.625 µg/mL (≈ 0.991 µM) with E. fecium. This compound came in with a Ki at B. subtilis Pol IIIC of 0.019 µM.
Consider `Cc1ccc(Nc2cc(=O)n(CCCCN3CCN(c4cc5c(cc4F)c(=O)c(C(=O)O)cn5C4CC4)C[C@@H]3C)c(=O)[nH]2)cc1C` [Compound 97, (S)-3-{4-[1-(1-cyclopropyl-3-carboxy-4-oxo-6-fluoro-7-quinolyl)-3-methyl-4-piperazinyl]butyl}-6-(3,4-dimethylanilino)uracil], for which the MIC in the assay on E. fecalis amounted to 0.625 µg/mL (≈ 0.991 µM); in the assay on B. subtilis it was 0.235 µg/mL (≈ 0.373 µM); in the assay with E. coli (setting [1]), 40 µg/mL (≈ 63.4 µM); with S.aureus (Smith), 0.625 µg/mL (≈ 0.991 µM); in the assay on S. aureus it was 1.25 µg/mL (≈ 1.98 µM); in the assay on E. fecium, 1.25 µg/mL (≈ 1.98 µM). The same compound registered an inhibitory constant (Ki) at B. subtilis Pol IIIC of 0.037 µM.
Consider `Cc1ccc(Nc2cc(=O)n(CCCCN3CCN(c4c(F)cc5c(=O)c(C(=O)O)cn(C6CC6)c5c4F)C[C@H]3C)c(=O)[nH]2)cc1C` [Compound 98, (R)-3-{4-[1-(1-cyclopropyl-3-carboxy-4-oxo-6,8-difluoro-7-quinolyl)-3-methyl-4-piperazinyl]butyl}-6-(3,4-dimethylanilino)uracil], for which the MIC stood at 1.25 µg/mL (≈ 1.93 µM) in the assay with E. fecalis; 0.313 µg/mL (≈ 0.482 µM) in the assay on B. subtilis; 5 µg/mL (≈ 7.71 µM) with E. coli (setting [1]); 0.625 µg/mL (≈ 0.963 µM) with S.aureus (Smith); 1.25 µg/mL (≈ 1.93 µM) with S. aureus; 1.25 µg/mL (≈ 1.93 µM) with E. fecium. At B. subtilis Pol IIIC, this compound came in with a Ki of 0.029 µM.
Regarding `Cc1ccc(Nc2cc(=O)n(CCCCN3CCN(c4c(F)cc5c(=O)c(C(=O)O)cn(C6CC6)c5c4F)C[C@@H]3C)c(=O)[nH]2)cc1C` [Compound 99, (S)-3-{4-[1-(1-cyclopropyl-3-carboxy-4-oxo-6,8-difluoro-7-quinolyl)-3-methyl-4-piperazinyl]butyl}-6-(3,4-dimethylanilino)uracil], the MIC was 0.625 µg/mL (≈ 0.963 µM) in the assay with E. fecalis; 0.156 µg/mL (≈ 0.24 µM) with B. subtilis; 0.625 µg/mL (≈ 0.963 µM) with E. coli (setting [1]); 0.156 µg/mL (≈ 0.24 µM) in the assay with S.aureus (Smith); 0.313 µg/mL (≈ 0.482 µM) in the assay with S. aureus; 1.25 µg/mL (≈ 1.93 µM) in the assay with E. fecium. At B. subtilis Pol IIIC, this compound showed a Ki of 0.03 µM.
On to `CCc1cc(Nc2cc(=O)n(CCCCN3CCN(c4cc5c(cc4F)c(=O)c(C(=O)O)cn5C4CC4)C[C@@H]3C)c(=O)[nH]2)ccc1C` [Compound 100, (S)-3-{4-[1-(1-cyclopropyl-3-carboxy-4-oxo-6-fluoro-7-quinolyl)-3-methyl-4-piperazinyl]butyl}-6-(3-ethyl-4-methylanilino)uracil], for which the MIC with E. fecalis came out at 0.475 µg/mL (≈ 0.737 µM); with B. subtilis, 0.156 µg/mL (≈ 0.242 µM); in the assay on E. coli (setting [1]) it was 50 µg/mL (≈ 77.5 µM); in the assay on S.aureus (Smith), 0.625 µg/mL (≈ 0.969 µM); in the assay with S. aureus, 0.937 µg/mL (≈ 1.45 µM); in the assay with E. fecium, 0.937 µg/mL (≈ 1.45 µM). The compound further showed a Ki at B. subtilis Pol IIIC of 0.011 µM.
Turning to `Cc1ccc(Nc2cc(=O)n(CCCCN3CCN(c4c(F)cc5c(=O)c(C(=O)O)cn(C6CC6)c5c4F)CC3)c(=O)[nH]2)cc1C` [Compound 101, 3-{4-[1-(1-cyclopropyl-3-carboxy-4-oxo-6,8-difluoro-7-quinolyl)-4-piperazinyl]butyl}-6-(3,4-dimethylanilino)uracil], the MIC turned out to be 0.937 µg/mL (≈ 1.48 µM) in the assay with E. fecalis; 0.235 µg/mL (≈ 0.37 µM) in the assay on B. subtilis; 5 µg/mL (≈ 7.88 µM) with E. coli (setting [1]); 0.313 µg/mL (≈ 0.493 µM) in the assay on S.aureus (Smith); 0.625 µg/mL (≈ 0.985 µM) in the assay on S. aureus; 1.25 µg/mL (≈ 1.97 µM) in the assay on E. fecium. Besides, the Ki at B. subtilis Pol IIIC was 0.024 µM.
On to `CCn1cc(C(=O)O)c(=O)c2cc(F)c(N3CCNCC3)cc21` [nflxn, norfloxacin, reference compound], for which the MIC turned out to be 2.5 µg/mL (≈ 7.83 µM) in the assay on E. fecalis; 0.625 µg/mL (≈ 1.96 µM) with B. subtilis; 0.078 µg/mL (≈ 0.244 µM) in the assay with E. coli; 0.156 µg/mL (≈ 0.489 µM) in the assay with S.aureus (Smith); 0.625 µg/mL (≈ 1.96 µM) with S. aureus; 20 µg/mL (≈ 62.6 µM) in the assay with E. fecium. For the same compound, at B. subtilis Pol IIIC, the “Ki (µM) Pol IIIC” value is “inactive”.

The Ki is the dissociation constant of the complex between target and ligand, obtained from inhibition or displacement. A higher Ki goes with a looser hold on the target.
